Here are results for 1 compound from patent publication US6995173B2, “Methods for the treatment of central nervous system disorders in certain patient groups” (R.T. Alamo Ventures I, LLC, priority 2001, dated 2006).

The target in the test is T1, PDE6 partially purified from bovine retinal rod and activated by trypsin (Bos taurus, UniProt P11541+P23439).
T1 construct: from tissue; host or cells: bovine retinal rod
T1 sequence (P11541 2-856 limits assumed): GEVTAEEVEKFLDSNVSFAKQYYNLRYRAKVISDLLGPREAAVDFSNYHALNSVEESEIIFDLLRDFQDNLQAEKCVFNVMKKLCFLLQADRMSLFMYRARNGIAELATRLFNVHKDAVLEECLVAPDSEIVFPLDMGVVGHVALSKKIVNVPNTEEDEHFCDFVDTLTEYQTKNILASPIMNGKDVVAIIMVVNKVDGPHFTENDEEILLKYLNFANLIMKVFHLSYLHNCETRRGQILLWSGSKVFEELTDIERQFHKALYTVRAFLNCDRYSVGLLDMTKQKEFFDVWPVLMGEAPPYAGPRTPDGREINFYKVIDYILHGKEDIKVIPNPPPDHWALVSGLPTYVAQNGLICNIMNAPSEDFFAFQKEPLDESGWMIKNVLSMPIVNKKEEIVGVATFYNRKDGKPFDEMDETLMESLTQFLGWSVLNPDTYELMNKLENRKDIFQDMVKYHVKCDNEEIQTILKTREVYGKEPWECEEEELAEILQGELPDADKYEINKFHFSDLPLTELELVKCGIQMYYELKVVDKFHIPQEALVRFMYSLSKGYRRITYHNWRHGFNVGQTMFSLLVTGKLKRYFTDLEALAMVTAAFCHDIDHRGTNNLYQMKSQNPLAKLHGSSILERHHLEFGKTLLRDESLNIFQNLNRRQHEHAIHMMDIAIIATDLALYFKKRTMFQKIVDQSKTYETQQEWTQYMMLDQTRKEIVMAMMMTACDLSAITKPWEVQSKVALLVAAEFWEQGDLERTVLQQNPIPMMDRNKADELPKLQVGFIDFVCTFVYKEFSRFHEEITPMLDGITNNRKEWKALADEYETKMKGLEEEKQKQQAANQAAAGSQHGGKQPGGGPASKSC
T1 sequence (P23439 2-850 limits assumed): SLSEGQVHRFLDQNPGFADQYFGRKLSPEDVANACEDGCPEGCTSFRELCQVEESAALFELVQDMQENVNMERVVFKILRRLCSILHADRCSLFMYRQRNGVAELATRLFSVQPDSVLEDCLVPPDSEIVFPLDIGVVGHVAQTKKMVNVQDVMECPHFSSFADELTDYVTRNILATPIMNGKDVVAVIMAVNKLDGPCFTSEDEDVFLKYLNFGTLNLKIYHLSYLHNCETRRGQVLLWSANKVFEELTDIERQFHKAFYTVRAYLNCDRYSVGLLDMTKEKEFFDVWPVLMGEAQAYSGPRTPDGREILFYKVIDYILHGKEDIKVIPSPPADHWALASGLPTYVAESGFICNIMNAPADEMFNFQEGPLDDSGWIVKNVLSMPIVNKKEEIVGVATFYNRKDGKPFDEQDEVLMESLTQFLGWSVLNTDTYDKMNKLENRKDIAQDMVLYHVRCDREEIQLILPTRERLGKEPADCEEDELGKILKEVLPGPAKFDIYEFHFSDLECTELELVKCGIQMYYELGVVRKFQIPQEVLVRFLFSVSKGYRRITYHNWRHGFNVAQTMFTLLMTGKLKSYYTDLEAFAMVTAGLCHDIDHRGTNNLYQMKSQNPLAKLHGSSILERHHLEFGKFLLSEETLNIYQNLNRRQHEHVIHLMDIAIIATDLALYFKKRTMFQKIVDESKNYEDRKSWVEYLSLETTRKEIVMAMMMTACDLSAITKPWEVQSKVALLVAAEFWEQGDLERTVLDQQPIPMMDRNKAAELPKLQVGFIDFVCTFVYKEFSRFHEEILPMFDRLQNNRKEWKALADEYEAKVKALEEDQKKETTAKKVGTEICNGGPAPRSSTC
The test is described as follows: PDE6 biochemical enzyme assay ([3H]cGMP hydrolysis, scintillation counting). Conditions: Example 2; versus Viagra 0.3 μM.

Method: PDE6 partially purified from bovine retinal rod and activated by trypsin was used. […] Each reaction was terminated by raising the temperature to 100° C. for 2 minutes. The resulting GMP was converted to guanosine by addition of 10 mg/ml snake venom nucleotidase and further incubated at 30° C. for 10 minutes. Unhydrolyzed cGMP was bound to AGI-X2 resin, and [^3H]guanosine remaining in the aqueous phase was quantitated by scintillation counting.

For the compound `Cn1cc([S+](C)[O-])c(=O)c2ccc(F)cc21` (racemic) [Flosequinan, 7-fluoro-1-methyl-3-methylsulphinyl-4-quinolone], the “times more compound on a molar basis than Viagra for such levels of PDE6 inhibition” value was “more than 300 times”.
